The values below come from patent publication US8796241B2, “Therapy of tumors and infectious agents deficient in methylthioadenosine phosphorylase” (priority 2007, dated 2014).

Each structure is given as a SMILES string.

One data set has as its system MTAP(+) HF cells. In words: Coulter counts of HF cell cultures. The format is cell-based, human. The method, then:
For adherent cell types (e.g., HF, A549, MCF7) cells were plated in 60 mm -diameter plastic tissue culture dishes and incubated at 37° C. in a humidified 5% CO2 atmosphere, in Dulbecco's Modified Eagle's Medium (DME) with 10% fetal bovine serum (FBS). At the start of an experiment, medium was replaced with DME and 10% dialyzed FBS.
For adherent cell types, cell numbers were determined periodically by releasing cells with trypsin (dead cells that were no longer adherent were removed by two prior rinses of the culture dish) and placing a portion of the resulting cell suspension in a Coulter counter. For cell types that grow in suspension, portions of the culture were counted directly, without trypsin treatment. Coulter counts of cells from each dish were done twice, and almost all experiments were done in duplicate. In the presentation of results, raw data for Coulter counts is given in some cases, while in others, counts have been rounded off to two to three significant figures. (Background Coulter counts—i.e., counts of diluent alone—were insignificant.)
Cell cultures were treated with MeP, with or without 5′-dAdo or MTA, for 4 days. The cell cultures were then changed to fresh medium, with the addition of 30 μM Ade to inhibit further action of the analog. Two days later cultures were trypsinized and a portion of the suspension was counted.
• A. F-Ade was added to cultures of HF cells, with varying amounts of 5′-dAdo. After 3 days, cell numbers were counted. • Initial cell count: 1,100 • After three days:
• Cultures of human fibroblasts were treated with DAP, 5′-dAdo, MTA, adenine, or MTX. Thymidine (15 μM) was added to all cultures. • Initial count was: 1807 • Counts, as raw data, after 3 days of incubation, are shown below: […]
• Human fibroblasts in culture were treated with 6-thioguanine (TG), 2,6-diaminopurine (DAP), or 5′-dAdo for 3 days. After trypsinization, cell numbers were counted. • Initial cell number: 296,000

The subject of a further data set is mice. Particulars: high doses; cited from earlier work.
The test system of data set [1] is MTAP(+) hematopoietic cell progenitors. In words: Assay of colony-forming cells from mouse bone marrow. The class given is cell-based. Particulars: 5′-dAdo at doses as low as 15 μM. The text has this: Method: The procedure for assay of colony-forming cells from mouse bone marrow was similar to methods described in the literature (see e.g., B. A. Teicher et al, Cancer Research, 47:513-518, 1987). In brief, cells were flushed from the femurs of Swiss mice, counted, and seeded into six-well tissue culture plates with supplemented McCoy's 5A medium, 15% FBS, 10 to 20% L929-cell conditioned medium as a source of colony-stimulating activity (L929 is MTAP-negative), 0.3% agar, and penicillin/streptomycin (op. cit. B. A. Teicher et al). Cells were seeded at two different densities: 50,000 and 250,000 cells per well. Control wells contained either no drugs, or adenine at 15 or 30 μM, or 5′-deoxyadenosine (5′-dAdo) at 15, 30, or 45 μM. Treatment wells contained 6-methylpurine (MeP) at 5 or 15 μM, 5′-deoxyadenosine (5′-dAdo) at 15 or 30 μM, and adenine at 15 or 30 μM, in various combinations. After eight days of incubation at 37° C. in a humidified 5% CO2 atmosphere, wells were fixed by the addition of 1 ml of 5% glutaraldehyde. Photographs were taken of a randomly selected portion of each well, as viewed (at fixed magnification) through a Nikon inverted microscope equipped with a camera.

In the data set on MTAP(+) HF cells (3 days, 5′-dAdo 60 μM, no F-Ade, initial count 1,100, x56 = cells/dish), `C[C@H]1O[C@@H](n2cnc3c(N)ncnc32)[C@H](O)[C@@H]1O` [5′-dAdo, 5′-deoxyadenosine] had a Coulter counts of 8150. The “protection of HF cells against MeP toxicity” value in the data set with MTAP(+) HF cells (Example 3) is “effectively protected”. Further, the “blocking of DAP toxicity in HF cells” value with MTAP(+) HF cells (Example 8) is on record as “blocked”. For the same molecule, in the data set with MTAP(+) HF cells (Example 15), the “blocking of inhibition by TG and by DAP in HF cells” value is recorded as “blocked inhibition”; the “protection of HF cells from the combined toxicity of TG and DAP” value was “protected”. The “protection from toxicity of F-Ade” value with MTAP(+) HF cells (increasing concentration of 5′-dAdo) is “so does protection”. For the same molecule, in the data set with mice, the toxicity in vivo entry is “non-toxic”. For the same molecule, the “blocking of MeP toxicity to murine hematopoietic progenitors” value in data set [1] is listed as “effectively blocked”.
